Test results reported in ChEMBL document CHEMBL1201862, “PubChem BioAssay data set” (2004).
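Assay format: 96-well plates, 48-hour exposure. GI50 marks 50% less growth.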 Calls of active or inactive are those of the source. Rule as the data show it: active = GI50 up to about 1.1 µM and inactive = higher.

Columns and labels:
Experiment in all cases: inhibition of tumour cell growth, NCI panel, 48 h
[1] = tested on: ACHN
[2] = tested on: CCRF-CEM
[3] = tested on: HCT-15
[4] = tested on: HOP-62
[5] = tested on: IGROV-1
[6] = tested on: KM12
[7] = tested on: NCI-H23
[8] = tested on: OVCAR-4
[9] = tested on: OVCAR-5
[10] = tested on: OVCAR-8
[11] = tested on: SW-620
[12] = tested on: TK-10
[13] = tested on: XF498
[14] = tested on: A498
[15] = tested on: BT-549
[16] = tested on: HL-60
[17] = tested on: Hs-578T
[18] = tested on: M14
[19] = tested on: MDA-MB-435
[20] = tested on: PC-3

Structure (SMILES) | GI50 [1] | GI50 [2] | GI50 [3] [µM] | GI50 [4] | GI50 [5] | GI50 [6] | GI50 [7] | GI50 [8] | GI50 [9] | GI50 [10] | GI50 [11] | GI50 [12] | GI50 [13] | GI50 [14] | GI50 [15] | GI50 [16] | GI50 [17] | GI50 [18] | GI50 [19] | GI50 [20]
CCOc1ccc(/N=N/c2ccc3oc(=O)c(/C(C)=N\NC(=O)CC(=O)Nc4ccc(Cl)cc4)cc3c2)cc1 | 22.4 µM (inactive) | 0.337 µM (active) | 6.25 | 17.6 µM (inactive) | 22 µM (inactive) | 19.2 µM (inactive) | 18.7 µM (inactive) | 20.4 µM (inactive) | 99.5 µM (inactive) | 16.1 µM (inactive) | 17.8 µM (inactive) | 12.9 µM (inactive) | 2.07 µM (inactive) |  |  |  |  |  |  | 
Cc1cn([C@@H]2O[C@H](CO[Si](C)(C)C(C)(C)C)[C@]3(O[C@H]3C(=O)NN)[C@H]2O[Si](C)(C)C(C)(C)C)c(=O)[nH]c1=O | 5.86 µM (inactive) | 2.42 µM (inactive) | 4.32 | 14.4 µM (inactive) | 6.22 µM (inactive) | 7.67 µM (inactive) | 14.1 µM (inactive) | 6.4 µM (inactive) | 8.55 µM (inactive) | 6.62 µM (inactive) | 5.73 µM (inactive) | 12.7 µM (inactive) |  | 16.9 µM (inactive) | 5.38 µM (inactive) | 3.13 µM (inactive) | 2.72 µM (inactive) | 7.18 µM (inactive) | 7.11 µM (inactive) | 4.6 µM (inactive)
NC(=O)N/N=C\c1ccccc1OCc1cccc(COc2ccccc2/C=N\NC(N)=O)n1 | 26.2 µM (inactive) | > 100 µM (inactive) | 64.1 | 12.4 µM (inactive) | 37.4 µM (inactive) | > 100 µM (inactive) | 30.1 µM (inactive) | > 100 µM (inactive) | 41.2 µM (inactive) | 63.1 µM (inactive) | > 100 µM (inactive) | 30.7 µM (inactive) |  | 98.6 µM (inactive) | 26.9 µM (inactive) | > 100 µM (inactive) | 13.2 µM (inactive) | 49.2 µM (inactive) | > 100 µM (inactive) | 86.9 µM (inactive)
N#Cc1c(O)c(/N=N/c2ccc(Cl)cc2)c(=O)n2c1[nH]c1ccccc12 | 36.1 µM (inactive) | 31.2 µM (inactive) | 28.1 | 17.5 µM (inactive) | 73.1 µM (inactive) | 47 µM (inactive) | 46 µM (inactive) | 67 µM (inactive) | 62.2 µM (inactive) | 37.8 µM (inactive) | 63.2 µM (inactive) | 54 µM (inactive) |  | 37.6 µM (inactive) | 34.6 µM (inactive) | 55.5 µM (inactive) | 52.1 µM (inactive) | 36 µM (inactive) | 35.8 µM (inactive) | 36.2 µM (inactive)
CCOC(=O)Oc1ccc2[nH]c3c(C)cc(N)c(C)c3c2c1 | > 100 µM (inactive) | > 100 µM (inactive) | > 100 | > 100 µM (inactive) |  | 68.4 µM (inactive) | > 100 µM (inactive) | > 100 µM (inactive) | > 100 µM (inactive) | > 100 µM (inactive) | > 100 µM (inactive) | > 100 µM (inactive) | > 100 µM (inactive) |  |  | 55.5 µM (inactive) |  | 98.4 µM (inactive) |  | 
CCCN(CCCC(NC(C)=O)C(=O)NCc1ccccc1)C(=O)NCCCl (stereo unspecified) | > 100 µM (inactive) | > 100 µM (inactive) | > 100 | > 100 µM (inactive) | > 100 µM (inactive) | > 100 µM (inactive) | > 100 µM (inactive) | > 100 µM (inactive) |  | > 100 µM (inactive) | > 100 µM (inactive) | > 100 µM (inactive) | > 100 µM (inactive) |  |  | > 100 µM (inactive) |  | > 100 µM (inactive) |  | 
O=C(Nc1ccc(Cl)cc1)c1cc(S(=O)(=O)NC2=Nc3ccc(Cl)cc3C(c3ccccc3)N2)c(SSc2cc(Cl)c(C(=O)Nc3ccc(Cl)cc3)cc2S(=O)(=O)NC2=Nc3ccc(Cl)cc3C(c3ccccc3)N2)cc1Cl (stereo unspecified) | > 100 µM (inactive) | 17.1 µM (inactive) | > 100 | > 100 µM (inactive) | > 100 µM (inactive) | > 100 µM (inactive) | > 100 µM (inactive) | > 100 µM (inactive) | 83.4 µM (inactive) | > 100 µM (inactive) | > 100 µM (inactive) | > 100 µM (inactive) |  | > 100 µM (inactive) | > 100 µM (inactive) | 3.37 µM (inactive) | > 100 µM (inactive) | 46.1 µM (inactive) | > 100 µM (inactive) | > 100 µM (inactive)
COc1cc(-c2cc(=O)c3cc4c(=O)cc(-c5cc(OC)c(OC)c(OC)c5)oc4cc3o2)cc(OC)c1OC | 25.1 µM (inactive) | > 100 µM (inactive) | > 100 | 12.6 µM (inactive) | 22.7 µM (inactive) | > 100 µM (inactive) | 25.8 µM (inactive) | > 82.8 µM (inactive) | > 100 µM (inactive) | 27 µM (inactive) | > 100 µM (inactive) | 16.3 µM (inactive) |  | 24.7 µM (inactive) | 17.5 µM (inactive) | > 100 µM (inactive) | 20.1 µM (inactive) | 60.3 µM (inactive) | > 100 µM (inactive) | > 100 µM (inactive)
